{
  "source": "patent US9895549B2",
  "about": "“On-demand drug release using magneto-electric nanoparticles” (priority 2012, dated 2018)",
  "tested_on": "SKOV-3 cells",
  "test": "Trypan-blue cell viability after field treatment, SKOV-3",
  "format": "cell-based, human",
  "conditions": "PTX drug +, no field, 24-hour",
  "text": "After we confirmed that the drug-loaded MENs in the vicinity of the cancer cells indeed acted as a field-controlled valve to let the drug in (due to the effective nano-electroporation effect according to our hypothesis), we studied the viability of the cancer cells for different combinations of the drug and the carrier after the drug penetrated through the cell membrane. (Here, maintaining the remote field at 30 Oe provided the specificity to the cancer cells or, in other words, ensured that the healthy cells were intact.) The confocal images that were obtained after a 24-hour field treatment are in FIG. 13. The three key combinations of the carrier included (i) no particle, (ii) HER-2-GMO-MENs (Note: Here, HER-2 stands for the HER-2 biomarker antibody), and (iii) GMO-MENs, respectively. Accordingly, the three images (from left to right) in FIG. 13A show the morphology of the cancer cells after 24-hour treatment by (i) the free drug (with no particle carrier), (ii) drug-HER-2-GMO-MENs with no field applied, and (iii) drug-GMO-MENs in a 30-Oe d.c. field. The three control images in FIG. 13B show the morphology of the cancer cells after the 24-hour treatment by the same three combinations of the carrier with no drug present. In addition, we conducted the confocal imaging and the trypan-blue cell viability tests on both SKOV-3 and HOMEC cell lines after 24- and 36-hour field treatment. […]",
  "data": [
    {"smiles": "CC(=O)O[C@H]1C(=O)[C@@]2(C)[C@H]([C@H](OC(=O)c3ccccc3)[C@]3(O)C[C@H](OC(=O)[C@H](O)[C@@H](NC(=O)c4ccccc4)c4ccccc4)C(C)=C1C3(C)C)[C@]1(OC(C)=O)CO[C@@H]1C[C@@H]2O", "note": "[FREE, Paclitaxel]", "values": [
      {"measurement": "Percentage Cells Alive", "result": "86 ± 8.8", "unit": "%"}
    ]}
  ]
}
